# In the supplement of paper PMC4862054:
# System: MFM-223
# Assay: normalised response (% of control), CellTox Green; higher = less cell death (100 = DMSO, 0 = benzethonium chloride kill control)
# Settings: incubation time: 72 h
# Method in brief: (§1)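 Normalised signals at single concentrations make up the values. They come from breast cancer cell lines seeded (20 µl suspension) into 384-well plates with compound at 5 concentrations in 10-fold steps over a compound-specific 10,000-fold range, incubated 72 h, and read for CellTox Green fluorescence then CellTiter-Glo luminescence. Each plate was normalised to 0.1 % DMSO (100) and a positive kill control (0).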
row,Structure (SMILES),normalised response
1,CC(C)n1nc(-c2ccc3oc(N)nc3c2)c2c(N)ncnc21 [INK128] (10 nM),99.9%
2,O=C(O)CC[C@H]1CC[C@@](c2cc(F)ccc2F)(S(=O)(=O)c2ccc(Cl)cc2)CC1 [MK-0752] (10 nM),85.8%

# System: MDA-MB-453
# Assay: as above
# Settings: incubation time: 72 h
# Method in brief: as §1
row,Structure (SMILES),normalised response
1,CC(C)NC[C@@H](C(=O)N1CCN(c2ncnc3c2[C@H](C)C[C@H]3O)CC1)c1ccc(Cl)cc1 [GDC-0068] (100 nM),107%
2,CCCc1cc(C)[nH]c(=O)c1CNC(=O)c1cc(-c2ccnc(N3CCN(C)CC3)c2)cc2c1cnn2C(C)C [GSK343] (100 nM),102%
3,NC(=O)NO [Hydroxyurea] (1000 nM),96.4%
4,COc1cc2c(cc1-c1c(C)noc1C)ncc1[nH]c(=O)n([C@H](C)c3ccccn3)c12 [I-BET151] (100 nM),98.3%
5,CC(C)n1nc(-c2ccc3oc(N)nc3c2)c2c(N)ncnc21 [INK128] (10 nM),99.3%
6,O=C(O)CC[C@H]1CC[C@@](c2cc(F)ccc2F)(S(=O)(=O)c2ccc(Cl)cc2)CC1 [MK-0752] (10 nM),107%

# System: HDQ-P1
# Assay: as above
# Settings: incubation time: 72 h
# Method in brief: as §1
row,Structure (SMILES),normalised response
1,CC(C)NC[C@@H](C(=O)N1CCN(c2ncnc3c2[C@H](C)C[C@H]3O)CC1)c1ccc(Cl)cc1 [GDC-0068] (100 nM),87%
2,CCCc1cc(C)[nH]c(=O)c1CNC(=O)c1cc(-c2ccnc(N3CCN(C)CC3)c2)cc2c1cnn2C(C)C [GSK343] (100 nM),105%
3,NC(=O)NO [Hydroxyurea] (1000 nM),99.4%
4,COc1cc2c(cc1-c1c(C)noc1C)ncc1[nH]c(=O)n([C@H](C)c3ccccn3)c12 [I-BET151] (100 nM),89.7%
5,CC(C)n1nc(-c2ccc3oc(N)nc3c2)c2c(N)ncnc21 [INK128] (10 nM),78.1%
6,O=C(O)CC[C@H]1CC[C@@](c2cc(F)ccc2F)(S(=O)(=O)c2ccc(Cl)cc2)CC1 [MK-0752] (10 nM),105%

# System: BT-474
# Assay: as above
# Settings: incubation time: 72 h
# Method in brief: as §1
row,Structure (SMILES),normalised response
1,CC(C)NC[C@@H](C(=O)N1CCN(c2ncnc3c2[C@H](C)C[C@H]3O)CC1)c1ccc(Cl)cc1 [GDC-0068] (100 nM),96.9%
2,CCCc1cc(C)[nH]c(=O)c1CNC(=O)c1cc(-c2ccnc(N3CCN(C)CC3)c2)cc2c1cnn2C(C)C [GSK343] (100 nM),100%
3,NC(=O)NO [Hydroxyurea] (1000 nM),101%
4,COc1cc2c(cc1-c1c(C)noc1C)ncc1[nH]c(=O)n([C@H](C)c3ccccn3)c12 [I-BET151] (100 nM),101%
5,CC(C)n1nc(-c2ccc3oc(N)nc3c2)c2c(N)ncnc21 [INK128] (10 nM),76.1%
6,O=C(O)CC[C@H]1CC[C@@](c2cc(F)ccc2F)(S(=O)(=O)c2ccc(Cl)cc2)CC1 [MK-0752] (10 nM),104%

# System: HCC1143
# Assay: as above
# Settings: incubation time: 72 h
# Method in brief: as §1
row,Structure (SMILES),normalised response
1,CC(C)NC[C@@H](C(=O)N1CCN(c2ncnc3c2[C@H](C)C[C@H]3O)CC1)c1ccc(Cl)cc1 [GDC-0068] (100 nM),93.9%
2,CCCc1cc(C)[nH]c(=O)c1CNC(=O)c1cc(-c2ccnc(N3CCN(C)CC3)c2)cc2c1cnn2C(C)C [GSK343] (100 nM),91.9%
3,NC(=O)NO [Hydroxyurea] (1000 nM),67.2%
4,COc1cc2c(cc1-c1c(C)noc1C)ncc1[nH]c(=O)n([C@H](C)c3ccccn3)c12 [I-BET151] (100 nM),91.9%
5,CC(C)n1nc(-c2ccc3oc(N)nc3c2)c2c(N)ncnc21 [INK128] (10 nM),60.6%
6,O=C(O)CC[C@H]1CC[C@@](c2cc(F)ccc2F)(S(=O)(=O)c2ccc(Cl)cc2)CC1 [MK-0752] (10 nM),120%

# System: MDA-MB-468
# Assay: as above
# Settings: incubation time: 72 h
# Method in brief: as §1
row,Structure (SMILES),normalised response
1,CC(C)NC[C@@H](C(=O)N1CCN(c2ncnc3c2[C@H](C)C[C@H]3O)CC1)c1ccc(Cl)cc1 [GDC-0068] (100 nM),125%
2,CCCc1cc(C)[nH]c(=O)c1CNC(=O)c1cc(-c2ccnc(N3CCN(C)CC3)c2)cc2c1cnn2C(C)C [GSK343] (100 nM),161%
3,NC(=O)NO [Hydroxyurea] (1000 nM),103%
4,COc1cc2c(cc1-c1c(C)noc1C)ncc1[nH]c(=O)n([C@H](C)c3ccccn3)c12 [I-BET151] (100 nM),54%
5,CC(C)n1nc(-c2ccc3oc(N)nc3c2)c2c(N)ncnc21 [INK128] (10 nM),104%
6,O=C(O)CC[C@H]1CC[C@@](c2cc(F)ccc2F)(S(=O)(=O)c2ccc(Cl)cc2)CC1 [MK-0752] (10 nM),108%

# System: MDA-MB-231
# Assay: as above
# Settings: incubation time: 72 h
# Method in brief: as §1
row,Structure (SMILES),normalised response
1,CC(C)NC[C@@H](C(=O)N1CCN(c2ncnc3c2[C@H](C)C[C@H]3O)CC1)c1ccc(Cl)cc1 [GDC-0068] (100 nM),97.8%
2,CCCc1cc(C)[nH]c(=O)c1CNC(=O)c1cc(-c2ccnc(N3CCN(C)CC3)c2)cc2c1cnn2C(C)C [GSK343] (100 nM),100%
3,NC(=O)NO [Hydroxyurea] (1000 nM),111%
4,COc1cc2c(cc1-c1c(C)noc1C)ncc1[nH]c(=O)n([C@H](C)c3ccccn3)c12 [I-BET151] (100 nM),78.7%
5,CC(C)n1nc(-c2ccc3oc(N)nc3c2)c2c(N)ncnc21 [INK128] (10 nM),99.5%
6,O=C(O)CC[C@H]1CC[C@@](c2cc(F)ccc2F)(S(=O)(=O)c2ccc(Cl)cc2)CC1 [MK-0752] (10 nM),122%

# System: MCF-10A
# Assay: as above
# Settings: incubation time: 72 h
# Method in brief: as §1
row,Structure (SMILES),normalised response
1,CC(C)NC[C@@H](C(=O)N1CCN(c2ncnc3c2[C@H](C)C[C@H]3O)CC1)c1ccc(Cl)cc1 [GDC-0068] (100 nM),106%
2,CCCc1cc(C)[nH]c(=O)c1CNC(=O)c1cc(-c2ccnc(N3CCN(C)CC3)c2)cc2c1cnn2C(C)C [GSK343] (100 nM),85.8%
3,NC(=O)NO [Hydroxyurea] (1000 nM),108%
4,COc1cc2c(cc1-c1c(C)noc1C)ncc1[nH]c(=O)n([C@H](C)c3ccccn3)c12 [I-BET151] (100 nM),89.9%
5,CC(C)n1nc(-c2ccc3oc(N)nc3c2)c2c(N)ncnc21 [INK128] (10 nM),108%
6,O=C(O)CC[C@H]1CC[C@@](c2cc(F)ccc2F)(S(=O)(=O)c2ccc(Cl)cc2)CC1 [MK-0752] (10 nM),109%

# System: CAL-85-1
# Assay: as above
# Settings: incubation time: 72 h
# Method in brief: as §1
row,Structure (SMILES),normalised response
1,CC(C)NC[C@@H](C(=O)N1CCN(c2ncnc3c2[C@H](C)C[C@H]3O)CC1)c1ccc(Cl)cc1 [GDC-0068] (100 nM),108%
2,CCCc1cc(C)[nH]c(=O)c1CNC(=O)c1cc(-c2ccnc(N3CCN(C)CC3)c2)cc2c1cnn2C(C)C [GSK343] (100 nM),106%
3,NC(=O)NO [Hydroxyurea] (1000 nM),115%
4,COc1cc2c(cc1-c1c(C)noc1C)ncc1[nH]c(=O)n([C@H](C)c3ccccn3)c12 [I-BET151] (100 nM),107%
5,CC(C)n1nc(-c2ccc3oc(N)nc3c2)c2c(N)ncnc21 [INK128] (10 nM),99.9%
6,O=C(O)CC[C@H]1CC[C@@](c2cc(F)ccc2F)(S(=O)(=O)c2ccc(Cl)cc2)CC1 [MK-0752] (10 nM),102%

# System: DU-4475
# Assay: as above
# Settings: incubation time: 72 h
# Method in brief: as §1
row,Structure (SMILES),normalised response
1,CC(C)NC[C@@H](C(=O)N1CCN(c2ncnc3c2[C@H](C)C[C@H]3O)CC1)c1ccc(Cl)cc1 [GDC-0068] (100 nM),102%
2,CCCc1cc(C)[nH]c(=O)c1CNC(=O)c1cc(-c2ccnc(N3CCN(C)CC3)c2)cc2c1cnn2C(C)C [GSK343] (100 nM),96%
3,NC(=O)NO [Hydroxyurea] (1000 nM),102%
4,COc1cc2c(cc1-c1c(C)noc1C)ncc1[nH]c(=O)n([C@H](C)c3ccccn3)c12 [I-BET151] (100 nM),103%
5,CC(C)n1nc(-c2ccc3oc(N)nc3c2)c2c(N)ncnc21 [INK128] (10 nM),96.8%
6,O=C(O)CC[C@H]1CC[C@@](c2cc(F)ccc2F)(S(=O)(=O)c2ccc(Cl)cc2)CC1 [MK-0752] (10 nM),108%
